Columns and labels:
HIV-1 protease with G48V [1] = details: thermodynamic integration and MM-PBSA; cited from earlier work
PR^S17 [2] = details: PR^S17, flap twisting by G48V implicated; cited from earlier work
[3] = tested on: PR with 22 mutations in addition to inactivating D25N mutation; details: PR with 22 mutations in addition to D25N; cited from earlier work
PR with M46L = details: cited from earlier work
PR with G48V = details: cited from earlier work
PR with I54V = details: cited from earlier work
[4] = tested on: PR bearing the single V82A mutation; details: kinetic studies; cited from earlier work
PR^S17 [5] = details: PR^S17, predicted from genotype–phenotype data; cited from earlier work
HIV-1 protease with G48V [6] = details: flap mutation G48V; cited from earlier work
[7] = biological target: PR^S17 (HIV-1 protease variant with 17 mutations); assay: Kinetic inhibition of PR^S17; type: biochemical; details: PR^S17 compared to PR
[8] = biological target: PR (wild-type HIV-1 protease); details: read-out: Inhibition constant (Ki), determined previously; cited from earlier work
PR^V82A = details: read-out: Inhibition constant (Ki), determined previously; cited from earlier work
[9] = biological target: HIV-1 protease variant PR^S17 (HIV-1); assay: enzyme inhibition kinetics

**Q.** For `CC(C)CN(C[C@@H](O)[C@H](Cc1ccccc1)NC(=O)O[C@H]1CCOC1)S(=O)(=O)c1ccc(N)cc1` [APV, amprenavir], which “effect of G48V on van der Waals interactions” value (HIV-1 protease with G48V [1]) is on record?
**A.** The value was “strengthens van der Waals interactions”.

**Q.** What does the source list for `CC(C)CN(C[C@@H](O)[C@H](Cc1ccccc1)NC(=O)O[C@H]1CO[C@H]2OCC[C@H]21)S(=O)(=O)c1ccc(N)cc1` [DRV, darunavir]?
**A.** cross-resistance of PR^S17 (PR^S17 [2]): cross-resistance; resistance (fold) [3]: > 175 fold; inhibition constant (Ki) relative to wild-type PR (PR with M46L): worse inhibition constants; inhibition constant (Ki) relative to wild-type PR (PR with G48V): worse inhibition constants; inhibition constant (Ki) relative to wild-type PR (PR with I54V): worse inhibition constants; affinity of PR with V82A for inhibitor [4]: significantly worse affinity

**Q.** With `COC(=O)N[C@H](C(=O)N[C@@H](Cc1ccccc1)[C@@H](O)CN(Cc1ccc(-c2ccccn2)cc1)NC(=O)[C@@H](NC(=O)OC)C(C)(C)C)C(C)(C)C` [atazanavir] as the compound, how does the predicted resistance (PR^S17 [5]) read?
**A.** The predicted resistance was “high-level resistance”.

**Q.** Which predicted resistance (PR^S17 [5]) does the source give for `CC(C)(C)NC(=O)[C@@H]1CN(Cc2cccnc2)CCN1C[C@@H](O)C[C@@H](Cc1ccccc1)C(=O)N[C@H]1c2ccccc2C[C@H]1O` [indinavir] here?
**A.** Its predicted resistance is “high-level resistance”.

**Q.** What about the “affinity of PR with V82A for inhibitor” value [4] of the same compound?
**A.** Its value is “significantly worse affinity”.

**Q.** Which predicted resistance (PR^S17 [5]) does the source give for `Cc1cccc(C)c1OCC(=O)N[C@@H](Cc1ccccc1)[C@@H](O)C[C@H](Cc1ccccc1)NC(=O)[C@H](C(C)C)N1CCCNC1=O` [lopinavir] here?
**A.** The predicted resistance was “high-level resistance”.

**Q.** Which predicted resistance (PR^S17 [5]) does the source give for `Cc1c(O)cccc1C(=O)N[C@@H](CSc1ccccc1)[C@H](O)CN1C[C@H]2CCCC[C@H]2C[C@H]1C(=O)NC(C)(C)C` [nelfinavir] here?
**A.** The predicted resistance was “high-level resistance”.

**Q.** And the “affinity of PR with V82A for inhibitor” value [4]?
**A.** Its value is “significantly worse affinity”.

**Q.** With `CC(C)c1nc(CN(C)C(=O)N[C@H](C(=O)N[C@@H](Cc2ccccc2)C[C@H](O)[C@H](Cc2ccccc2)NC(=O)OCc2cncs2)C(C)C)cs1` [ritonavir] as the compound, how does the predicted resistance (PR^S17 [5]) read?
**A.** The predicted resistance was “high-level resistance”.

**Q.** What about the “affinity of PR with V82A for inhibitor” value [4] of the same compound?
**A.** The value was “significantly worse affinity”.

**Q.** Which results are given for `CC(C)(C)NC(=O)[C@@H]1C[C@@H]2CCCC[C@@H]2CN1C[C@@H](O)[C@H](Cc1ccccc1)NC(=O)[C@H](CC(N)=O)NC(=O)c1ccc2ccccc2n1` [saquinavir]?
**A.** predicted resistance (PR^S17 [5]): high-level resistance; inhibition constant (Ki) relative to wild-type PR (PR with M46L): worse inhibition constants; inhibition constant (Ki) relative to wild-type PR (PR with G48V): worse inhibition constants; inhibition constant (Ki) relative to wild-type PR (PR with I54V): worse inhibition constants; resistance conferred by G48V (HIV-1 protease with G48V [6]): high level of resistance

**Q.** With Ace-T-I-Nle-r-Nle-Q-R [p2-NC] as the compound, how does the “Ki relative to the wild-type PR (fold better inhibition)” value [7] read?
**A.** The value was 4.2.

**Q.** And the Ki [8]?
**A.** The Ki was 2170 nM.

**Q.** And the Ki (PR^V82A)?
**A.** The Ki was 530 nM.

**Q.** With R-V-L-r-F-E-A-Nle [CA-p2] as the compound, how does the Ki [8] read?
**A.** The Ki was 75 nM.

**Q.** What about the Ki (PR^V82A) of the same compound?
**A.** The Ki was 24 nM.

**Q.** With “substrate analogue CA-p2 (R-V-L-r-F-E-A-Nle) (peptide)” as the compound, how does the Ki [9] read?
**A.** The Ki was 22 nM.

**Q.** Which Ki [9] does the source give for “substrate analogue p2-NC (Ace-T-I-Nle-r-Nle-Q-R) (peptide)” here?
**A.** The Ki was 514 nM.

Source: paper PMC6545544 (ACS Omega, 2019)
